Experimental data as given in US4180677A, “Novel prostaglandins” (American Cyanamid Company, priority 1977, dated 1979).

Tests used:
[1] = system: ulcerogenic properties of indomethacin; experiment: Protection against indomethacin-induced ulcers (oral gavage); format: in vivo, rat; details: rats, indomethacin 20 mg./kg. s.c., score 0 normal to 4 many ulcers
Procedure: The compounds of this invention provide protection against the ulcerogenic properties of indomethacin. This assay was carried out in the following manner.
Rats were starved for 48 hours (water was given ad libitum). Indomethacin (20 mg./kg. of body weight) was administered by the subcutaneous route and one-half the dose of the test compound was administered by gavage at the same time. After three hours, the second half of the test compound was administered also be gavage. Five hours after the administration of indomethacin the animals were decapitated and the stomachs removed. The stomachs were washed with distilled water, blotted on gauze, cut along the larger curvature, and the contents rinsed with distilled water. The stomachs were spread out, pinned on a cork and visualized under magnifying glass for ulcers. The criteria for scoring of ulcers was as previously reported. [Abdel-Galil et al. Brit. J. Pharmac. Chemotherapy 33:1-14 (1968)].
1-Petechial hemorrhage or pin point ulder
3 Many ulcers, a few large
4-Many ulcers, mainly large
Control animals treated with indomethacin but not test compound consistenly give scores of about 3.0. Control animals treated with neither indomethacin nor test compound gives scores of about 0.5-0.8. Compounds producing a lowering of the control score by 0.5 or more are considered to be active.

[2] = system: bronchospasms elicited by histamine; experiment: Bronchodilator activity (Konzett assay), spasmogen histamine; format: in vivo, guinea pig; details: Cavia porcellus; guinea pigs, spasmogen histamine i.v.; three logarithmic cumulative intravenous doses
Procedure: (§1) Bronchodilator activity was determined in guinea pigs against bronchospasms elicited by intravenous injections of 5-hydroxytryptamine, histamine or acetylcholine by the Konzett procedure. [See J. Lulling, P. Lievens, F. El Sayed and J. Prignot, Arzneimittel-Forschung, 18, 995 (1968).]
(§2) In the Table which follows bronchodilator activity for representative compounds of this invention against one or more of three spasmogenic agents is expressed as an ED50 determined from the results obtained with three logarithemic cumulative intravenous doses.

[3] = system: bronchospasms elicited by acetylcholine; experiment: Bronchodilator activity (Konzett assay), spasmogen acetylcholine; format: in vivo, guinea pig; details: Cavia porcellus; guinea pigs, spasmogen acetylcholine i.v.; three logarithmic cumulative intravenous doses
Procedure: as §1, §2

[4] = system: bronchospasms elicited by 5-hydroxytryptamine; experiment: Bronchodilator activity (Konzett assay), spasmogen 5-hydroxytryptamine; format: in vivo, guinea pig; details: Cavia porcellus; guinea pigs, spasmogen 5-hydroxytryptamine i.v.; three logarithmic cumulative intravenous doses
Procedure: as §1, §2

| Compound | Score, treated (ulcer score) ([1]; total oral dose 25.0 mg./kg. of body weight, control score 3.0) | ED50 [2] | ED50 [3] | ED50 [4] | Score, treated (ulcer score) ([1]; total oral dose 12.5 mg./kg. of body weight, control score 2.8) |
| --- | --- | --- | --- | --- | --- |
| O=C(O)CCCCCC[C@H]1C(=O)CC[C@@H]1/C=C/[C@H](O)CC1CCCC1 (relative stereo) [9-oxo-15-epi-hydroxy-17,20-methano-13-trans-prostenoic acid] | 1.7 | 0.206 mg/kg | 3.2 mg/kg | 3.2 mg/kg | – |
| O=C(O)CCCCCC[C@H]1C(=O)CC[C@@H]1/C=C/[C@@H](O)CC1CCCC1 (relative stereo) [9-oxo-15-hydroxy-17,20-methano-13-trans-prostenoic acid] | – | 0.0014 mg/kg | 3.2 mg/kg | 0.0063 mg/kg | 1.8 |
